Here are results for one compound from patent US11389536B2 (priority 2015, dated 2022).

Structures are written as SMILES. Where two headings read alike, the source gives them in different places.

In data set [1] the test system is lungs of athymic nude mice. As to the kind of experiment: Lung histology for radiation-induced pneumonitis and fibrosis (H&E, Masson's trichrome). The data set is classed as in vivo. To be noted: irradiated lungs. The protocol: For the in vivo studies, athymic nude mice are housed in the specific pathogen-free (SPF) Cancer Research Institute animal facility which exceeds the national requirements for animal care, with two conventional mouse rooms, two nude mouse rooms, and one quarantine room. Radiation was administered using an IC160 X-ray cell culture and small animal irradiation system (Kimtron Inc., Woodbury, Conn., USA) located inside the animal facility. Nine weeks post radiation, the mice were sacrificed and the lungs were harvested and processed for hematoxylin and eosin (H&E) staining. For immunohistochemistry and hematoxylin and eosin-staining procedures, one part of the tumor tissue is formalin-fixed and paraffin-embedded and another part embedded in OCT compound (Miles, Inc., Elkhart, Ind.), rapidly frozen in liquid nitrogen, and stored at […] for sectioning. Immunofluorescence microscopy is performed using a 20× objective on an epifluorescence microscope equipped with narrow bandpass excitation filters mounted in a filter wheel (Ludl Electronic Products, Hawthorne, N.Y.).
To determine the degree of radiation-induced pneumonitis, the lungs were harvested and processed for histology and H&E staining (FIGS. 23A-23D) and the amount of fibrosis and collagen deposition, indicative of chronic lung conditions, was measured using Masson's trichrome stain (FIGS. 23E-23H).

Data set [2] concerns non-tumor-bearing athymic nude mice. The protocol: Non-tumor-bearing athymic nude mice were exposed to fractionated doses of 30 Gy radiation (weekly administration of 5 Gy) in the presence or absence of twice weekly intravenous (i.v.) injections of Ce02 or intraperitoneal (i.p.) injections of Amifostine 30 min prior to radiation. Amifostine is a free radical scavenger. […] Treatments continued for […] for a total dose of 30 Gy radiation. The mice were killed and necropsied only when they became moribund or the experiment was terminated. The weight and mortality of each mouse was measured throughout the experiment and median and percent survival was determined, as shown in FIG. 22E.

Consider `NCCCNCCSP(=O)(O)O` [Amifostine], for which, in data set [1], the “fibrosis and collagen deposition (Masson's Trichrome stain)” value is “fibrosis and collagen deposition were common”. Besides, the median survival time is on record as 119 days in data set [2] (agent alone, no radiation (Amifostine 150 mg/kg i.p.)) and 81 days in data set [2] (combination with radiation (5 Gy fractions, total 30 Gy), CONPs 15 nM i.v. twice weekly, Amifostine i.p. 30 min prior to radiation). Further, the “tolerability / toxicity to mice” value in data set [2] (athymic nude mice) is given as “highly toxic to the mice”.
